Assay results taken from patent publication US20130331368A1, “METHOD OF TREATING HEPATOCELLULAR CARCINOMA” (Niiki Pharma Acquisition Corp. 2, priority 2011, published 2013).
pIC50: −log10 of the molar value. ≈ marks a conversion by molar mass, not a printed value. Where two headings read alike, the source gives them in different places.

Assays:
HepG2 [1] = assay: Literature IC50 in HepG2 (Kogure et al.); type: cell-based, human; settings: ratio of literature IC50 values (Kogure et al.)
Experimental: In addition, the IC50 values of 5-FU and cisplatin in the Hep3B and HepG2 cell lines were obtained from Kogure et al., Cancer Chemother. Pharmacol., 53(4):296-304 (2004). The ratios of IC50 values of sodium trans-[tetrachlorobis(1H-indazole)ruthenate(III)] in a cell line sensitive to one of the other drugs and a cell line insensitive to the same drug were calculated. The results are shown in Tables 1-5 below (“Test Drug” in the tables denotes sodium trans-[tetrachlorobis(1H-indazole)ruthenate(III)]). […] As such, sodium trans-[tetrachlorobis(1H-indazole)ruthenate(III)] is potentially effective in treating hepatocellular carcinoma resistant to such other drugs.

HepG2 [2] = settings: from Kogure et al. 2004; cited from earlier work
Hep3B [3] = settings: from Kogure et al. 2004; cited from earlier work
[4] = tested on: stress kinase P38 and extracellular signal-regulated kinase (ERK); assay: Phosphorylation of P38 and ERK; type: cell-based, human; settings: 24 hours of treatment
[5] = tested on: colon cancer cell line SW480; settings: Kapitza et al. 2005; cited from earlier work
Hep3B [6] = assay: MTT cytotoxicity assay, Hep3B cell line; type: cell-based, human
Experimental: (§1) To test the activities of sodium trans-[tetrachlorobis(1H-indazole)ruthenate(III)] (“drug”), MTT assays were performed using selected hepatocellular carcinoma cell lines. Cells were plated (2×10^3 cells in 100 μl/well) in 96-well plates and allowed to recover for 24 hours. The drug was added in another 100 μl growth medium and incubated with cultured cells for 3 hours before the cell culture medium was replaced to remove the drug. Cell death was measured 72 hours after the initial incubation by MTT assay following the manufacturer's recommendations (EZ4U, Biomedica, Vienna, Austria).
(§2) In addition, the IC50 values of 5-FU and cisplatin in the Hep3B and HepG2 cell lines were obtained from Kogure et al., Cancer Chemother. Pharmacol., 53(4):296-304 (2004). The ratios of IC50 values of sodium trans-[tetrachlorobis(1H-indazole)ruthenate(III)] in a cell line sensitive to one of the other drugs and a cell line insensitive to the same drug were calculated.

HCC3 = assay: MTT cytotoxicity assay, HCC3 cell line; type: cell-based, human; settings: for pIC50: HCC3, MTT at 72 h; for IC50 Ratio (HCC3/B1): IC50 in HCC3 divided by IC50 in B1
Experimental: as §1, §2

HCC2 = assay: MTT cytotoxicity assay, HCC2 cell line; type: cell-based, human; settings: for pIC50: HCC2, MTT; for IC50 Ratio (HCC2/HCC3): IC50 in HCC2 divided by IC50 in HCC3
Experimental: as §1, §2

HCC1.2 = assay: MTT cytotoxicity assay, HCC1.2 cell line; type: cell-based, human; settings: 3 h drug incubation, MTT at 72 h
Experimental: as §1

PARP = PARP cleavage by Western blot; type: cell-based, human; settings: 24 hours of drug treatment
Experimental: Treatment with sodium trans-[tetrachlorobis(1H-indazole)ruthenate(III)] led to typical morphological signs of programmed cell death like cell shrinkage, chromatin condensation and formation of apoptotic bodies. Apoptotic cell death induced by sodium trans-[tetrachlorobis(1H-indazole)ruthenate(III)] was further characterized by PARP cleavage examined by Western Blot Analyses. Specifically, after 24 hours of drug treatment, protein extracts were prepared and Western blot analyses performed. Rabbit Anti-PARP from Apoptosis Sampler kit (Cell Signaling Technology, Beverly, Mass.) (dilution 1:1000)[…]) was used. For loading control β-actin monoclonal mouse AC-15 (Sigma, USA, dilution: 1:1000) was used. All secondary peroxidase-labeled antibodies were purchased from Santa Cruz Biotechnology and used at working dilution of 1:10000.

Hep3B cells [7] = assay: Apoptosis induction, DAPI staining of nuclear morphology; type: cell-based, human; settings: 24 hours of drug treatment
Experimental: To evaluate the mechanisms underlying the drug activity, apoptosis induction as well as impact on cell cycle distribution and proliferation of Hep3B cells were evaluated (FIG. 2). Specifically, the hepatoma cell line Hep3B was purchased from American Type Culture Collection (ATCC), Manassas, Va. All cells were grown in RPMI 1640 supplemented with 10% FCS. Cultures were regularly checked for Mycoplasma contamination. After 24 hours of drug treatment, cells were harvested, washed in PBS and cytospins were prepared. After fixation with a 1:1 methanol/acetone solution, slides were stained with 4′,6-diamidino-2-phenylindole (DAPI) containing antifade solution (Vector Laboratories, Inc., USA). Nuclear morphology of cells was examined using a Laica DMRXA fluorescence microscope (Laica Mikroskopie and System, Wetzlar, Germany) equipped with appropriate epifluorescence filters and a COHU charge-douples device camera. Duplicate slides were prepared for each cell type/treatment group and 300-500 cells were counted for each sample.
Treatment with sodium trans-[tetrachlorobis(1H-indazole)ruthenate(III)] led to typical morphological signs of programmed cell death like cell shrinkage, chromatin condensation and formation of apoptotic bodies. […]

Hep3B cells [8] = assay: Cell cycle distribution, PI staining and FACS; type: cell-based, human; settings: 24 hours of treatment, PI staining, FACS
B1 = assay: MTT cytotoxicity assay, B1 cell line; type: cell-based, human
Experimental: as §1, §2

Hep3B cells [9] = assay: Mitochondrial membrane depolarization, JC-1 staining and FACS; type: cell-based, human
[10] = tested on: hepatocellular carcinoma cell lines; assay: MTT cytotoxicity assay, mean over selected hepatocellular carcinoma cell lines; type: cell-based, human; settings: mean over tested HCC cell lines, after 72 hours
Experimental: as §1

HepG2 [11] = assay: MTT cytotoxicity assay, HepG2 cell line; type: cell-based, human; settings: for pIC50: HepG2; for IC50 Ratio (HepG2/Hep3B): IC50 in HepG2 divided by IC50 in Hep3B
Experimental: as §1, §2

[12] = tested on: colon cancer cell line HT29; settings: Kapitza et al. 2005; cited from earlier work
Hep3B cells [13] = assay: DNA synthesis rate by 3H-thymidine incorporation; type: cell-based, human
Hep3B cells [14] = settings: for increase in life span: versus control group (33 days)
Experimental: Separately, the activity of sodium trans-[tetrachlorobis(1H-indazole)ruthenate(III)] against Hep3B cells was evaluated in xenograft experiments using female SCID mice as compared to the standard therapy sorafenib. Sodium trans-[tetrachlorobis(1H-indazole)ruthenate(III)] was administered IV at 30 mg/kg once a week for two weeks. Sorafenib was administered P.O. at 25 mg/kg daily five times a week for two weeks.

hepatocellular carcinoma = settings: late stage HCC patients with well preserved liver function; cited from earlier work
[15] = Hep3B xenograft, female SCID mice

| Structure (SMILES) | IC50 Ratio (HepG2/Hep3B) (HepG2 [1]) | IC50 (HepG2 [2]) [µg/mL] | IC50 (Hep3B [3]) [µg/mL] | pIC50 (HCC3) | IC50 Ratio (HCC3/B1) (HCC3) | pIC50 (HCC2) | IC50 Ratio (HCC2/HCC3) (HCC2) | IC50 Ratio (HepG2/Hep3B) (HepG2 [11]) | mean survival (Hep3B cells [14]; [15]) [days] | increase in life span (Hep3B cells [14]; Hep3B xenograft) [fold] | other results |
| --- | --- | --- | --- | --- | --- | --- | --- | --- | --- | --- | --- |
| O=c1[nH]cc(F)c(=O)[nH]1 [5-FU] | >5.2 | 17.2 (≈ 132 µM) | 227 (≈ 1750 µM) |  |  |  |  |  |  |  |  |
| [Cl][Ru-]([Cl])([Cl])[Cl].[Na+].c1ccc2[nH]ncc2c1.c1ccc2[nH]ncc2c1 [sodium trans-[tetrachlorobis(1H-indazole)ruthenate(III)]] |  |  |  | 4.17 | 0.8 | 3.89 | 1.9 | 1.1 | 80 | 2.4 | phosphorylation of P38 and ERK [4]: strong phosphorylation; killing of tumor cells [5]: effective in killing tumor cells; pIC50 (Hep3B [6]; MTT): 3.78; pIC50 (HCC1.2): 4.20; PARP cleavage (PARP): PARP cleavage induced; apoptosis induction (Hep3B cells [7]): significant apoptosis; cell cycle distribution (Hep3B cells [8]): increase of cells in G2/M phase; pIC50 (B1): 4.08; cells with mitochondrial membrane depolarization (Hep3B cells [9]): increase of cells with mitochondrial membrane depolarization; pIC50 [10]: 3.91; pIC50 (HepG2 [11]; MTT): 3.72; killing of tumor cells [12]: effective in killing tumor cells; DNA synthesis rate (Hep3B cells [13]): significantly reduce DNA synthesis rate; tumor growth (Hep3B cells [14]; Hep3B xenograft, female SCID mice, IV 30 mg/kg once a week for two weeks): effectively suppressed the growth of tumor; tolerability (Hep3B cells [14]; female SCID mice, IV 30 mg/kg once a week for two weeks): well tolerated |
| O=C1[O][Pt]2([NH][C@@H]3CCCC[C@H]3[NH]2)[O]C1=O [Oxaliplatin, oxaliplatin, reference compound] |  |  |  | 6.39 |  | 5.39 | >9.9 |  |  |  |  |
| N.N.[Cl][Pt][Cl] [Cisplatin, cisplatin] | >5.2 | 19.4 | 3.75 |  |  |  |  |  |  |  |  |
| CNC(=O)c1cc(Oc2ccc(NC(=O)Nc3ccc(Cl)c(C(F)(F)F)c3)cc2)ccn1 [Sorafenib, sorafenib, reference compound] |  |  |  |  | >12.5 |  |  |  | 60 | 1.9 | added lifespan (hepatocellular carcinoma): two; pIC50 (HCC3; Homo sapiens): < 5.00; pIC50 (B1; Homo sapiens): 6.10 |
| COc1cccc2c1C(=O)c1c(O)c3c(c(O)c1C2=O)C[C@@](O)(C(=O)CO)C[C@@H]3O[C@H]1C[C@H](N)[C@H](O)[C@H](C)O1 [Doxorubicin, doxorubicin, reference compound] |  |  |  |  |  |  |  | >3.6 |  |  | pIC50 (Hep3B [6]; Homo sapiens): 7.16; pIC50 (HepG2 [11]; Homo sapiens): < 6.60 |
